# Data taken from patent publication US20200010479A1, “INHIBITORS OF MICROBIAL BETA-GLUCURONIDASE ENZYMES AND USES THEREOF” (THE UNIVERSITY OF NORTH CAROLINA AT CHAPEL HILL, priority 2017, published 2020).
# Entries after “also recorded” stand apart in the source; their conditions may differ.
# Experiments:
# E. coli GUS [1] = molecular target: T1, E. coli GUS (Escherichia coli, UniProt P05804); test: In vitro EcGUS inhibition, cleavage of PNPG by purified E. coli GUS; assay type: biochemical; conditions: PNPG substrate, 37° C., 2 hours
# Description: To assess GUS inhibition, cleavage of p-nitrophenyl-β-D-glucuronide (PNPG) by purified E. coli GUS in the presence of inhibitor was measured. The reaction was performed in 96-well clear-bottom plates at a volume of 50 μL. Each reaction contained 5 μL of 100 nM E. coli GUS, 5 μL of inhibitor at various concentrations, 10 μL of 250 mM HEPES and 250 mM NaCl assay buffer, and 30 μL of 1.5 mM PNPG. The reaction was initiated by addition of PNPG and incubated at 37° C. for 2 hours. End point absorbance values at 410 nm were measured using a PHERAstar Plus microplate reader. The resulting data were fit with a four-parameter logistic log function in SigmaPlot 13.0 to determine IC50 values. IC50 was defined as the concentration of inhibitor that yields a 50% reduction in product formation at equilibrium.
# E. coli GUS [2] = molecular target: T1, E. coli GUS; assay type: biochemical; conditions: purified L1 enzyme, in vitro
# E. eligens GUS = test: SN-38-G processing by purified GUS enzymes, with inhibitors; assay type: biochemical, Eubacterium eligens; conditions: purified L1 enzyme, in vitro
# S. agalactiae GUS = molecular target: T2, S. agalactiae GUS (Streptococcus agalactiae serotype V, UniProt Q8E0N2); assay type: biochemical; conditions: purified L1 enzyme, in vitro
# T2 construct: made in house
# C. perfringens GUS = C. perfringens GUS (Clostridium perfringens, UniProt Q8XP19); assay type: biochemical
# [3] = molecular target: T3, Mini-Loop 1 (mL1) GUS from Bacteroides fragilis (Bacteroides fragilis, UniProt Q5LIC7); assay type: biochemical; conditions: purified mL1 enzyme, in vitro
# T3 construct: made in house
# [4] = tested on: Loop 2 (L2) enzyme from Bacteroides uniformis; test: SN-38-G processing by purified GUS enzymes, with inhibitors; assay type: biochemical; conditions: in vitro
# [5] = tested on: panel of purified GUS enzymes present in the human gut microbiota; test: SN-38-G processing by panel of purified GUS enzymes, with inhibitors; assay type: biochemical; conditions: comparison of inhibitors over the panel
# [6] = tested on: gut microbial GUS proteins; test: SN-38-G processing by in fimo samples (enzyme mixtures from intestinal contents); assay type: biochemical, naïve FVB mice
# From the text: To examine the activity of a more relevant sample of gut microbial GUS proteins, intestinal contents from naïve FVB mice in SPF conditions were obtained. […] As used herein, the ex vivo intestinal samples examined scientifically are to be termed “in fimo” from “fimus”, used by […] and in formal Latin to mean “excrement”. […] FIGS. 14A and 14B). […] FIGS. 14A and 14B).
# gut microbial enzymes = test: SN-38-G reactivation in fimo samples after treatment of FVB mice; assay type: in vivo
# Description: The FVB mice were treated with irinotecan, the Inh9, or both irinotecan and Inh9, and it was determined how these treatments affected SN-38-G reactivation in fimo samples collected after 24 hours. […] A similar study was conducted in which samples were collected at 120 hours; at this five-day timepoint, no difference was found between the four treatment groups (data not shown).
# [7] = tested on: murine intestinal epithelium; test: Time-course of gut damage after a single treatment in FVB mice; assay type: in vivo, female FVB mice
# Description: It has been previously reported that irinotecan induces apoptosis and reduces the number of mitotic structures in the rat intestinal epithelium (Takasuna 1996). To assess whether Inh9 impacts cell proliferation in the murine intestinal epithelium, we undertook two time-course studies. Four groups of age-, weight- and litter-matched female FVB mice were treated with a single treatment of vehicle, Inh9 (1 mg/kg p.o.), irinotecan (50 mg/kg i.p.) or irinotecan and Inh9. One set of animals were euthanized after 24 hours, and a second set after 120 hours. To assess overall effects on the animals, changes in body weight, spleen mass and hematocrit were measured. In the GI tract, levels of apoptotic cells and proliferative cells were measured and epithelial samples were examined by H&E staining.
# Thus, at five days, Inh9 appears to protect this measure of animal health. […] As such, the protection afforded at 24 hours by Inh9 is sufficient to improve subsequent gut epithelial outcomes in mice several days after administration.
# gut microbiota [8] = test: 16S rRNA metataxonomic analysis of luminal contents, athymic Sum149 xenograft mice; assay type: in vivo
# Description: A metataxonomic analysis was performed of the luminal contents of athymic mice bearing Sum149 triple-negative breast cancer xenograft tumors by sequencing the V3-V4 region of the bacterial 16s rRNA gene. […] Gut microbial diversity is associated with animal and human health, while reduced diversity is associated with disease in both model organisms and humans (REFs). Thus, Inh9 blunts the negative effects of irinotecan on gut microbial diversity in athymic tumor xenograft mice, and is capable of increases species richness in these animals.
# At the phylum level, the lumenal contents of vehicle-treated mice contained 50% Bacteroidetes, 42% Firmicutes, and 4% Proteobacteria (FIG. 22B). […] Thus, in immune-deficient mice, Inh9 markedly protects gut microbial composition in athymic mice, increasing diversity and reducing irinotecan-induced increases in Proteobacteria.
# gut microbiota [9] = test: Gut microbiota composition in C3Tag GEMM animals; assay type: in vivo, C3Tag GEMM mice; conditions: mice with intact immune system
# From the text: Finally, we examined the effects of irinotecan and GUS inhibitor on the composition of the gut microbiota in […] triple-negative breast cancer GEMM animals. […] While the vehicle and Inh9 treatment groups appeared similar by PCoA1 analysis, both the irinotecan and IRI+Inh9 groups were similar to each other and distinct from the non-irinotecan mice (FIG. 22C). However, unlike the xenograft mice, irinotecan induces much smaller changes in the composition of the gut microbiota in these GEMM animals. […] These changes were not as dramatic as those observed with the athymic Sum149 xenograft mice presented above. […] In these GEMM animals, though, no change in Enterobacteriaceae or other Gammaproteobacteria families was observed; thus, the taxa that drive the increases in Proteobacteria are not known in these immune-competent mice.
# SUM149 cells = test: SUM149 triple negative breast cancer xenograft in athymic nude mice
# C3-Tag mammary tumors = test: C3-Tag genetically engineered mouse model (GEMM) of triple-negative breast cancer
# [10] = Inh9 co-treatment with irinotecan, 24 hours
# [11] = irinotecan plus Inh9 vs irinotecan alone, 120 hours
# [12] = irinotecan and Inh9 vs irinotecan alone
# T1 sequence (P05804 whole entry): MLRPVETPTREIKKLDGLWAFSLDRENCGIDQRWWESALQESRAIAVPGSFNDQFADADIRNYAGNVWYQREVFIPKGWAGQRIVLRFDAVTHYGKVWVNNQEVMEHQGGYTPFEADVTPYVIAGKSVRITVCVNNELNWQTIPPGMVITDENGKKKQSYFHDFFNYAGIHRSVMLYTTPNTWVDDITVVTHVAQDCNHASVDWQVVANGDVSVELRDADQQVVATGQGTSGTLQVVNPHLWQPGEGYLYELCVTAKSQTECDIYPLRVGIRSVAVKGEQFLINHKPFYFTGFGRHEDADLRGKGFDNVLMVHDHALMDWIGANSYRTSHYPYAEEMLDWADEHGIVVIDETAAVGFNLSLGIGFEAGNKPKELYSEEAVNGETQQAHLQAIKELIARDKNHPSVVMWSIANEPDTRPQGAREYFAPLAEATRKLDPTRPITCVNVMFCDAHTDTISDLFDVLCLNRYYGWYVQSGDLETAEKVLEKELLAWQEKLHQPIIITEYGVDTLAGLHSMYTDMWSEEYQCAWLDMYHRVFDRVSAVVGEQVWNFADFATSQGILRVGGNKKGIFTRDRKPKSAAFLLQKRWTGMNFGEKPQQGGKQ
# T3 sequence (Q5LIC7 whole entry): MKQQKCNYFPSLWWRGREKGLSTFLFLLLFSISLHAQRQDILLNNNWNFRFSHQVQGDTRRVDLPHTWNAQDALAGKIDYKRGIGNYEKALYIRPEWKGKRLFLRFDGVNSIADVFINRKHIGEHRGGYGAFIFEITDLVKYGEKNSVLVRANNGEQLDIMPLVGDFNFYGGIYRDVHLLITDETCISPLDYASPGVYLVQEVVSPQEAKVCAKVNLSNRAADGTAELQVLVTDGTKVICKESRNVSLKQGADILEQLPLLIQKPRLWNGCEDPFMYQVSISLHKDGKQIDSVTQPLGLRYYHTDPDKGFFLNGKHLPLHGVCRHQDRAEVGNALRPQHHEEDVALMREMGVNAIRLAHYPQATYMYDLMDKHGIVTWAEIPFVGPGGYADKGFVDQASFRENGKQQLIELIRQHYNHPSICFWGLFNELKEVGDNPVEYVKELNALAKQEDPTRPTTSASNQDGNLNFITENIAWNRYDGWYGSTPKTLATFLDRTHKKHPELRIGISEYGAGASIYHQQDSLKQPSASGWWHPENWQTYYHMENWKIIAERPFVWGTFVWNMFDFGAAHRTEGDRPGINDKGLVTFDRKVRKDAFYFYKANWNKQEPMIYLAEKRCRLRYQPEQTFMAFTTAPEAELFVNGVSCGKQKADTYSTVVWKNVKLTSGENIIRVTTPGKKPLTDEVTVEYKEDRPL
# Sequence of C. perfringens GUS (Q8XP19 whole entry, looked up): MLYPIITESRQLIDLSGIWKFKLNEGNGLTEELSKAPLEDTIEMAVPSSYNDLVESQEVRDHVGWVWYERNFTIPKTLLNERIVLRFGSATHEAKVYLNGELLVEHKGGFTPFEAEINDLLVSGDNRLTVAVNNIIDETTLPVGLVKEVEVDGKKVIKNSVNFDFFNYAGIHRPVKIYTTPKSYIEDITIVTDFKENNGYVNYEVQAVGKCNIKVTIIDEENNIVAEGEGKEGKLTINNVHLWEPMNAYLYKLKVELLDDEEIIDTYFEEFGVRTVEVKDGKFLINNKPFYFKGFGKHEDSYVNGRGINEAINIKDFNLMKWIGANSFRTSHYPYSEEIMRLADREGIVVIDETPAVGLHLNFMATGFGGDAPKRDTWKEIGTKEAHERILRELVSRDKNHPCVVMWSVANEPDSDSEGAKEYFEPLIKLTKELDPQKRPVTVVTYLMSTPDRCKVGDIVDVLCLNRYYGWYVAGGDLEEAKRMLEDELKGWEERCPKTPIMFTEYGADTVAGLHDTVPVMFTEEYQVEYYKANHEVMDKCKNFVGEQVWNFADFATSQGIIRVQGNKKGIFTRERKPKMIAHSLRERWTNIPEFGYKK
# T2 sequence (Q8E0N2 whole entry): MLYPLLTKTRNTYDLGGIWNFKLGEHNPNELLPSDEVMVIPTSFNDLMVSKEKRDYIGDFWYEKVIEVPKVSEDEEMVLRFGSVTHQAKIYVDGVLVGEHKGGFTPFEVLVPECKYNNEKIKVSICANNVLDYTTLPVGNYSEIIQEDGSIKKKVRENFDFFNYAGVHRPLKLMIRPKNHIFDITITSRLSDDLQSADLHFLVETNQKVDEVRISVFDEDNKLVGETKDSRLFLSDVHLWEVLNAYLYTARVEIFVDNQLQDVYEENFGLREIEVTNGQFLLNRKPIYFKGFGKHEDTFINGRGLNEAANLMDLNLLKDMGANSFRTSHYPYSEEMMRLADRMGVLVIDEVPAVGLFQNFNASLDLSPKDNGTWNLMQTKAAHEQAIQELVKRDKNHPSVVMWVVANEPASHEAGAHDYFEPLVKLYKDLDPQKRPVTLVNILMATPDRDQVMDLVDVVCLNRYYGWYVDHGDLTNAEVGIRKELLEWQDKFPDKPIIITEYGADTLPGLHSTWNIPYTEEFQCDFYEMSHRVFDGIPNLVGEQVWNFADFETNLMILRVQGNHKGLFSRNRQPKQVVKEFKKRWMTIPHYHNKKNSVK
compound,measurement,setting,value
C1CCc2c(c(N3CCOCC3)nc3sc4c(N5CCNCC5)nnnc4c23)C1 [Inh9],IC50,E. coli GUS [1],0.38 µM
same,inhibition of SN-38-G processing (apparent kcat),E. coli GUS [2],efficiently reduced
same,inhibition of SN-38-G processing (apparent kcat),E. eligens GUS,efficiently reduced
same,inhibition of SN-38-G processing (apparent kcat),S. agalactiae GUS,efficiently reduced
same,inhibition of SN-38-G processing (apparent kcat),C. perfringens GUS,efficiently reduced
same,inhibition of SN-38-G processing,[3],did not inhibit
same,inhibition of SN-38-G processing,[4],did not inhibit
same,inhibiting GUS-mediated reactivation of SN-38-G in vitro,[5],superior to Inh1
same,SN-38-G reactivation by cecal contents,[6]; Inh9 at 50 and 100 μM,dose-dependent; also recorded: significantly reduce
same,reducing SN-38-G processing in fimo,"[6]; cecum, proximal and distal colon samples, comparison of inhibitors",superior to Inh1
same,level of SN-38-G reactivation by in fimo samples,"gut microbial enzymes; Inh9 plus irinotecan compared to irinotecan alone, 24 hours",significantly reduced
same,effects on SN-38-G reactivation by in fimo samples,gut microbial enzymes; samples collected at 120 hours,no longer detected
same,SN-38-G processing activity in the mouse cecum (in fimo samples),"gut microbial enzymes; single agent, samples collected after 24 hours",did not alter
same,acute toxicity after single IRI injection,[7]; [10],modestly reduces
same,apoptotic cells per crypt,[7]; [10],modest protection
same,apoptotic cells per crypt,"[7]; Inh9 co-treatment with irinotecan, 120 hours",modest protection
same,numbers of proliferative cells in the GI tract (BrdU),"[7]; between treatment groups, 24 hours",no change
same,"number of proliferative cells per crypt in ileum, proximal colon and distal colon","[7]; co-treatment of irinotecan with Inh9, 120 hours",significantly increased
same,body weight or spleen mass,[7]; [11],no changes
same,hematocrit,[7]; [11],significant increase
same,reduction of the levels of Proteobacteria compared to vehicle,gut microbiota [8]; GUS inhibitor alone,more than 10 fold
same,"species diversity, Chao1 richness",gut microbiota [8]; IRI+Inh9,maintained species diversity
same,"Bacteroidetes in lumenal contents, phylum level",gut microbiota [8]; irinotecan and Inh9,42%
same,"Firmicutes in lumenal contents, phylum level",gut microbiota [8]; irinotecan and Inh9,43%
same,"Proteobacteria in lumenal contents, phylum level",gut microbiota [8]; irinotecan and Inh9,13%
same,"Proteobacteria in lumenal contents, phylum level",gut microbiota [8]; single agent,0.3%
same,"species diversity, Chao1 richness",gut microbiota [8]; single agent,uniformly maximized species richness
same,composition of the gut microbiota,gut microbiota [9],does not change
same,post-sacrifice colon histological examination,SUM149 cells; Inh9 with irinotecan,marked protection
same,diarrhea,SUM149 cells; [12],significantly less diarrhea
same,irinotecan-induced weight loss / body weight,SUM149 cells; [12],significant improvement; also recorded: significantly protected
same,survival,SUM149 cells; [12],slightly improved overall survival; also recorded: trended toward living longer
same,terminal tumor masses,SUM149 cells; irinotecan-plus-Inh9,significantly reduced
same,tumor volumes,SUM149 cells; irinotecan-plus-Inh9 compared to vehicle and Inh9 cohorts,significantly reduced
same,"colon tissue, H&E staining",C3-Tag mammary tumors; IRI+Inh9,maintained a properly assembled colonic glandular structure
same,day to which the study could continue,C3-Tag mammary tumors; IRI+Inh9,49 days
same,primary tumor as share of body weight,C3-Tag mammary tumors; IRI+Inh9,below 1%
same,primary tumor mass upon sacrifice,C3-Tag mammary tumors; IRI+Inh9,less than 100 mg
same,time some animals remained diarrhea-free,C3-Tag mammary tumors; IRI+Inh9,42 days
same,body weight over the course of the study,"C3-Tag mammary tumors; IRI+Inh9, after the first 21 days",rebounded and recovered their lost weight
same,survival longer than IRI (Kaplan-Meier),C3-Tag mammary tumors; IRI+Inh9 vs IRI,43%
same,number of doses of irinotecan received,C3-Tag mammary tumors; IRI+Inh9 vs IRI alone,significantly higher number of IRI doses; also recorded: more doses of irinotecan
same,survival longer than Veh and Inh9 (Kaplan-Meier),C3-Tag mammary tumors; IRI+Inh9 vs Veh and Inh9,29%
same,diarrhea,C3-Tag mammary tumors; IRI+Inh9 vs irinotecan alone,significantly reduced diarrhea
same,diarrhea,C3-Tag mammary tumors; Inh9 alone,did not develop diarrhea
same,time followed until tumor size necessitated euthanasia,C3-Tag mammary tumors; Inh9 alone (as vehicle),70 to 80 days
same,extension of overall survival of irinotecan-treated mice,C3-Tag mammary tumors; Inh9 co-treatment,14 days
same,number of tumors observed in the animals,C3-Tag mammary tumors; between treatment groups,did not differ
same,tumor volumes measured during the study,C3-Tag mammary tumors; irinotecan plus GUS inhibition,significantly smaller tumors
same,body weight over the course of the study,C3-Tag mammary tumors; single agent,gained weight
same,"colon tissue, H&E staining",C3-Tag mammary tumors; single agent,healthy colonic histology
same,primary tumor as share of body weight,C3-Tag mammary tumors; single agent,more than 5%
same,primary tumor mass upon sacrifice,C3-Tag mammary tumors; single agent,1.5 g
same,tumor volumes measured during the study,C3-Tag mammary tumors; single agent,reduced tumor volumes
same,tumor number and relative mass (FIG. 9),C3-Tag mammary tumors; with Inh9,significant reduction
